Consider 2 compounds from patent US11879137B2, “Treatment of type 1 diabetes and autoimmune diseases or disorders” (THE CHILDREN'S MEDICAL CENTER CORPORATION, priority 2017, dated 2024).

Like-named read-outs stand apart in the source and are kept apart here.

For one series, the system named is peripheral CD34+ cells. The settings on record: after mobilization. The protocol: Data are expressed as mean±standard error of the mean (SEM). Data are representative of at least two independent experiments. *P<0.05; **P<0.01; ***P<0.001. #P<0.05 vs. all
The effect of overcoming PD-L1 deficiency in human HSPCs was tested by using the same agents described herein above (e.g., tested in NOD mice). […] To study the ex vivo immunoregulatory functions of pCD34+, CD34-depleted PBMCs were co-cultured with unmodulated CD34+ or pCD34+ in the presence of insulin-associated autoantigen-2 (I-A2), and the number of IFN-γ-producing cells was quantified in an ELISPOT assay. […] Finally, the effect of plerixafor-mediated mobilization, used in clinic (5, 9), was analyzed on PD-L1 expression in CD34+ cells obtained from 5 T1D patients and 8 healthy controls (Table 10).

Series [1] deals with PD-L1 in MDA-MB-231 cells. Kind of series: PD-L1 protein by western blot in transfected MDA-MB-231 cells. Type of series: cell-based, human. The conditions noted are these: vs corresponding negative control; 48 h. How it is done: MDA-MB-231 breast cancer cells were cultured in DMEM high glucose medium (Gibco, Thermo Fisher Scientific; Waltham, MA USA) supplemented with 10% heat-inactivated fetal calf serum (Gibco, Thermo Fisher Scientific), 100 units/ml penicillin, 100 μg/ml streptomycin, and 2 mM L-glutamine. 2×10^5 cells were seeded in each well of a 6-well plate and transfected with 10 pmol of the miRNA mimic or miRNA mimic negative control, or 100 pmol of the anti-miR or anti-miR negative control (all from Exiqon, Qiagen) using the Lipofectamine RNAiMAX transfection reagent (Invitrogen, Thermo Fisher Scientific) in a final culture medium volume of 2 ml, following manufacturer's instructions. […] Forty-eight hours after transfection, cells were collected from each well for RNA extraction, cell lysate preparation and FACS analysis. RNA was extracted using Direct-zol RNA miniprep plus (Zymo research, Irvine, CA, USA) and RNA quality was checked and then retro-transcribed using RETROscript® Kit (Fisher Scientific) following manufacturer's instructions. […]
Protein concentration in MDA-MB-231 cell lysates was measured. […] Finally, for the quantification of western blot, images of PVDF membranes were analyzed by ImageJ software to quantify size and strength of protein bands. […]

Series [2] concerns NEU1, MTOR, MYC, IGF1R, VEGFA, RB1 in MDA-MB-231 cells. Kind of series: mRNA of validated miRNA target genes (transfection control) in MDA-MB-231 cells. Type of series: cell-based, human. The settings on record: VEGFA or RB1 as named for each agent, 48 h after transfection. The protocol: MDA-MB-231 breast cancer cells were cultured in DMEM high glucose medium (Gibco, Thermo Fisher Scientific; Waltham, MA USA) supplemented with 10% heat-inactivated fetal calf serum (Gibco, Thermo Fisher Scientific), 100 units/ml penicillin, 100 μg/ml streptomycin, and 2 mM L-glutamine. 2×10^5 cells were seeded in each well of a 6-well plate and transfected with 10 pmol of the miRNA mimic or miRNA mimic negative control, or 100 pmol of the anti-miR or anti-miR negative control (all from Exiqon, Qiagen) using the Lipofectamine RNAiMAX transfection reagent (Invitrogen, Thermo Fisher Scientific) in a final culture medium volume of 2 ml, following manufacturer's instructions. […] Forty-eight hours after transfection, cells were collected from each well for RNA extraction, cell lysate preparation and FACS analysis. RNA was extracted using Direct-zol RNA miniprep plus (Zymo research, Irvine, CA, USA) and RNA quality was checked and then retro-transcribed using RETROscript® Kit (Fisher Scientific) following manufacturer's instructions. Cell lysates were obtained in RIPA buffer (50 mmol/1 Tris-HCl, pH 8.0, 1% Triton-x, 0.5% sodium deoxycholate, 0.1% SDS, 150 mmol/1 sodium chloride) with protease inhibitor cocktail (Roche).
qRT-PCR for PD-L1 analysis was performed on retro-transcribed cDNA using SYBR® Green dye (Life Technologies, Thermo Fisher Scientific). Amplification was performed on a QuantStudio S6 Real Time PCR system (Thermo Fisher Scientific). To confirm a successful transfection, the mRNA level of genes known to be controlled by the targeted miRNAs were evaluated by SYBR® Green dye (Life Technologies, Thermo Fisher Scientific) according to the manufacturer's instructions. Normalized expression values were determined using the ΔΔCt method in treated as compared to negative treated samples, using GAPDH mRNA as endogenous reference. The miRNA-targeted genes tested, along with forward and reverse primer sequences used for their amplification, are listed in Table 13.
To determine if targeting the miRNA network decreases PD-L1 expression in human cancer setting, PD-L1-expressing MDA-MB-231 human breast cancer cells were transfected with a set of miRNA mimics or anti-miRs to either increase or decrease the function of a set of miRNAs not previously known to affect PD-L1 (miR-125b, miR-99a, miR-744, mir-599, miR-511, miR-206, miR-26b). The effect of treatment with miRNA mimics and anti-miRs on the percentage of PD-L1-expressing cells, as well as on PD-L1 mRNA and protein levels, was investigated. miRNA mimic/anti-miR treated-cells were compared to corresponding mimic/anti-miR negative control-treated cells by flow cytometric analysis, Real Time PCR and western blot to assess percentage of PD-L1-expressing cells, PD-L1 mRNA, and PD-L1 protein levels, respectively. A successful miRNA mimic/anti-miR transfection was confirmed by the detection of changed mRNA levels of the validated miRNA targets NEU1 (for miR-125b mimic), MTOR (for miR-99a mimic), MYC (for miR-744 mimic and miR-599 anti-miR), IGF1R (for miR-511 mimic), VEGFA (for miR-206 anti-miR) and RB1 (for miR-26b anti-miR) in treated cells (FIG. 22A). […] Lysates of miR-511 mimic and miR-206 anti-miR treated cells were not available for western blot analysis.

Regarding `c1cc(CN2CCCNCCNCCCNCC2)ccc1CN1CCCNCCNCCCNCC1` [plerixafor], the results for the “percentage of CD34+PD-L1+ cells” value with peripheral CD34+ cells (T1D patients) and with peripheral CD34+ cells (healthy controls) were “remained stable” and “decreased”, respectively. Besides, in the series on peripheral CD34+ cells (5 T1D patients and 8 healthy controls), the “percentage and absolute number of CD34+ cells” value was “significantly increased”.

On to “miR-599 anti-miR: Anti-miR, GUUUGAUAAACUGACACAAC, SEQ ID NO: 6 (listed as RNA, chemistry not given here)”, for which the PD-L1 protein levels result in series [1] was “increase”. For the same compound, the “mRNA levels of the validated miRNA target” value in series [2] is “changed”.
